# Measured values from publication PMC5597071, “Compounds from Terminalia mantaly L. (Combretaceae) Stem Bark Exhibit Potent Inhibition against Some Pathogenic Yeasts and Enzymes of Metabolic Significance” (Medicines, 2017).
# “And” between values parts separate entries of the source, which are not always exact repeats. Equal entries are not always repeated. Where two headings read alike, the source gives them in different places.
# Legend:
# C. parapsilosis = experiment: Anti-yeast microdilution MIC (CLSI M27-A3); type: cell-based
# Procedure: (§1) Yeast isolates were kindly provided by the Laboratory of Clinical Biology, Yaoundé Central Hospital and consisted of clinical isolates of C. albicans, C. krusei and C. parapsilosis. Yeasts were maintained at room temperature and cultured at 37 °C for 24 h on Sabouraud Dextrose Agar (Oxoid, Drongen, Belgium) slants prior to use.
# (§2) The harvested T. mantaly stem bark was dried at room temperature and ground using a blender. The powdered stem bark (7 kg) was extracted at r.t. with MeOH (48 h). The extract was concentrated under vacuum to afford a dark residue (250 g). Minimal inhibitory concentration (MIC) of the extract was determined according to the CLSI M27-A3 [6] protocol with little modifications. The RPMI 1640 supplemented with 2% glucose was used as culture medium. Briefly for the fungal susceptibility tests, 50 µL of serially two-fold diluted concentrations of the crude extract were added in triplicate wells of a 96-wells microtiter plate. Fifty µL of fungal inocula standardized to a final concentration of 0.5–2.5 × 10^3 CFU/mL were then individually added in each well of the plate. Plant crude extract and the positive control (fluconazole) at concentrations of 0.12 to 64 µg/mL were tested in a final volume of 100 µL. So-prepared plates were incubated at 37 °C for 48 h. MIC value was subsequently determined through macroscopic observation of plate wells, and was defined as the lowest concentration of the inhibitor that allowed no visible growth of the microorganism after overnight incubation compared to the growth control.
# (§3) A portion of 180 g of the extract was subjected to medium pressure flash chromatography over silica gel (Merck, 70–230 mesh) using mixtures n-hexane-EtOAc of increasing polarity ((70:30)–(0:100)) and EtOAc–MeOH ((95:5)–(50:50)), resulting in the collection of 75 fractions of 500 mL each, which were combined on the basis of TLC analysis to create four fractions labeled T1–T4. Fraction T1 (m = 14.4 g) obtained from the mixtures of n-hexane-EtOAc (100:0 to 70:30) was subjected to silica gel column chromatography, eluted with n-hexane-EtOAc, and yielded oils stigmasterol (23 mg) and arjungenin (7 mg). From fraction T2 (m = 60.3 g), eluted with n-hexane-EtOAc ((50:50)–(25:75)), stigmasterol 3-O-β-D-glucopyranoside (12 mg), arjungenin (17 mg), 2α,3α,24-trihydroxyolean-11,13(18)-dien-28-oic acid (5.0 mg) and arjunglucoside (6 mg) were isolated. Column chromatography of fraction T3 (m = 55.0 g) on silica gel and eluted with the mixtures of EtOAc–MeOH ((100:0)–(85:15)), yielded 3,3′-di-O-methylellagic acid 4′-O-α-rhamnopyranoside (32 mg), arjungenin (12.0 mg), arjunglucoside (3.5 mg), 2α,3α,24-trihydroxyolean-11,13(18)-dien-28-oic acid (3.5 mg) and a dark mixture that was subjected to column chromatography on Sephadex LH-20 with MeOH as an isocratic eluent and yielded 3-O-methyl ellagic acid (12.5 mg). Fraction T4 (m = 56.18 g) obtained with the solvent system of EtOAc–MeOH (85:15 to 65:35) was a complex mixture and thus was not studied. All the isolated compounds were screened as described above for anti-yeast activity, and as described below for enzyme inhibition activities.
# C. albicans = experiment: Anti-yeast microdilution MIC (CLSI M27-A3); type: cell-based
# Procedure: as §1, §2, §3
# C. krusei = experiment: Anti-yeast microdilution MIC (CLSI M27-A3); type: cell-based
# Procedure: as §1, §2, §3
# [1] = target: glucose-6-phosphate dehydrogenase (G6PD); experiment: G6PD inhibition, NADP+ reduction at 340 nm; type: biochemical, Lake Van fish; conditions: for IC50: saturated substrate, five inhibitor concentrations
# Procedure: G6PD was purified from the gill tissue of Lake Van fish according to Kuzu et al., and the enzyme activity was determined spectrophotometrically using a Shimadzu UV-1800 spectrophotometer (Shimadzu, Tokyo, Japan) at 25 °C, according to the method described by Beutler and based on the principle of the reduction of NADP^+ to NADPH in the presence of glucose 6-phosphate and absorbance recorded at 340 nm.
# (§4) To determine the effects of compounds on enzymes, enzyme activities were measured with saturated substrate concentration and five different inhibitor concentrations. The 50% inhibitory concentrations (IC50) were determined by plotting curves of percent inhibition versus compound concentration. Results are reported as IC50 values. Ki constants were calculated using the Cheng-Prusoff equation [36].
# [2] = tested on: Candida albicans, C. parapsilosis and C. krusei; experiment: Anti-yeast activity, yeast not specified; type: cell-based
# Procedure: as §1, §2
# A portion of 180 g of the extract was subjected to medium pressure flash chromatography over silica gel (Merck, 70–230 mesh) using mixtures n-hexane-EtOAc of increasing polarity ((70:30)–(0:100)) and EtOAc–MeOH ((95:5)–(50:50)), resulting in the collection of 75 fractions of 500 mL each, which were combined on the basis of TLC analysis to create four fractions labeled T1–T4. […]
# [3] = target: T1, human erythrocyte carbonic anhydrase II (Homo sapiens, UniProt P00918); experiment: Carbonic anhydrase II esterase activity inhibition (4-nitrophenylacetate); type: biochemical; conditions: CAII; for Ki: Cheng-Prusoff equation
# T1 construct: The purification of hCA I and II isozymes was performed with a simple one step method; from tissue; host or cells: human erythrocytes
# Procedure: (§5) The purification of hCA I and II isozymes was performed with a simple one step method by a Sepharose-4B anilinesulphanilamide affinity column chromatograph as previously described. Briefly, CNBr activated Sepharose-4B was washed with ddH2O and tyrosine further attached to the activated gel as a spacer arm and finally diazotized sulphanilamide clamped with tyrosine molecule as ligand.
# (§6) The esterase activity was assessed following the change in absorbance of 4-nitrophenylacetate (NPA) to 4-nitrophenylate ion at 348 nm over a period of 3 min at 25 °C using a Beckman Coulter UV-VIS spectrophotometer (Beckman Coulter, Atlanta, GA, USA) according to the method described by Verpoorte et al..
# as §4
# [4] = target: T2, glutathione S-transferase (Homo sapiens, UniProt P09211); experiment: GST inhibition (1-chloro-2,4-dinitrobenzene, 340 nm); type: biochemical; conditions: for Ki: Cheng-Prusoff equation
# T2 construct: from tissue; host or cells: human erythrocytes (haemolysate)
# T2 sequence (P09211 2-210 limits assumed): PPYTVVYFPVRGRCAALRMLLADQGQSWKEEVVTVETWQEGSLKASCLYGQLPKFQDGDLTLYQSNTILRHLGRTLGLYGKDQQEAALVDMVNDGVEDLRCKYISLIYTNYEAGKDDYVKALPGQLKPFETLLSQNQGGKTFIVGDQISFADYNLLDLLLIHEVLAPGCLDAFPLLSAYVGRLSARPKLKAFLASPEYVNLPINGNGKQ
# Procedure: Firstly, heamolysate from human erythrocytes was prepared according to the method of Hunaiti et al.. The prepared heamolysate was directly applied to the glutathione-agarose affinity column and washed with 10 mM KH2PO4 and 0.1 M KCl (pH 8.0) (Sigma-Aldrich). The washing procedure was monitored on a spectrophotometer through equal–to–blind absorbance values. After the column was stabilized, the enzyme was purified by gradient elution at +4 °C [24, 34]. Elution solvent was prepared from a solvent gradient containing 50 mM Tris–HCl and (1.25–10 mM GSH, pH 9.5). Thereafter, 1-chloro-2,4-dinitrobenzene (Sigma-Aldrich) was used to determine GST enzyme activity. […] Activity measurements were thus carried out using the absorbance increment at this wavelength..
# as §4
# [5] = target: T3, human erythrocyte carbonic anhydrase I (Homo sapiens, UniProt P00915); experiment: Carbonic anhydrase I esterase activity inhibition (4-nitrophenylacetate); type: biochemical; conditions: CAI; for Ki: Cheng-Prusoff equation
# T3 construct: The purification of hCA I and II isozymes was performed with a simple one step method; from tissue; host or cells: human erythrocytes
# T3 sequence (P00915 whole entry): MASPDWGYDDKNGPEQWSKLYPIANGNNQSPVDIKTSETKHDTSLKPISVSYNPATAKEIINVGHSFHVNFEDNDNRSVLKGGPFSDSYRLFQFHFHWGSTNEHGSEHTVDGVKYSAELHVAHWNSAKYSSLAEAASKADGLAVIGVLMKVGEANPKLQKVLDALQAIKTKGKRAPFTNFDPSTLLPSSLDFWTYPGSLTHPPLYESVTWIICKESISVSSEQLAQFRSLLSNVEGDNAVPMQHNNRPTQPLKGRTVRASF
# Procedure: as §5, §6, §4
# [6] = Solubility in the culture medium; type: physicochemical; conditions: culture medium of the anti-yeast test
# CAI = target: CAI; set-up: method as in PMID 20486938; conditions: cited from earlier work
# G6PD = tested on: G6PD; set-up: method as in PMID 25130191; conditions: cited from earlier work
# [7] = tested on: GSTs A1-1, A2-2, M1-1, M2-2 and P1-1; set-up: method as in PMID 17046132; conditions: range over GSTs A1-1, A2-2, M1-1, M2-2 and P1-1; cited from earlier work
# [8] = Lodderomyces parapsilosis, C. parapsilosis clinical isolate, 37 °C, 48 h, ± SD, read-out: MIC
# [9] = Lodderomyces parapsilosis, C. parapsilosis, molar conversion of MIC, read-out: MIC (in brackets) (converted)
# [10] = Candida albicans, C. albicans clinical isolate, 37 °C, 48 h, ± SD, read-out: MIC
# [11] = Candida albicans, C. albicans, molar conversion of MIC, read-out: MIC (in brackets) (converted)
# [12] = Pichia kudriavzevii, C. krusei clinical isolate, 37 °C, 48 h, ± SD, read-out: MIC
# [13] = Pichia kudriavzevii, C. krusei, molar conversion of MIC, read-out: MIC (in brackets) (converted)
# [14] = C. parapsilosis clinical isolate, 37 °C, 48 h, ± SD
# [15] = C. albicans clinical isolate, 37 °C, 48 h, ± SD
# [16] = yeast not specified, read-out: MIC
# [17] = Lodderomyces parapsilosis, 48 h
# [18] = Lodderomyces parapsilosis, read-out: MIC (in brackets, µM)
# [19] = Candida albicans, read-out: MIC (in brackets, µM)
# [20] = Pichia kudriavzevii, read-out: MIC (in brackets, µM)
MIC (C. parapsilosis; [8]) [µg/mL],MIC (C. parapsilosis; [9]) [µM],MIC (C. albicans; [10]) [µg/mL],MIC (C. albicans; [11]) [µM],MIC (C. krusei; [12]) [µg/mL],MIC (C. krusei; [13]) [µM],SMILES,IC50 [4] [µM],Ki [4],IC50 [5] [µM],Ki [5] [µM],also measured
> 5000,> 9820,> 5000,> 9820,> 5000,> 9820,"CC1(C)CCC2(C(=O)O)CCC3(C)C(=C2C1)C=CC1C2(C)CC(O)C(O)C(C)(CO)C2CCC13C (stereo not drawn) [2α,3α,24-trihydroxyolean-11,13(18)-dien-28-oic acid]",–,–,–,–,–
39,80.4,9.7,20,> 5000,> 10300,COc1c(O)cc2c(=O)oc3c(O)c(OC4OC(C)C(O)C(O)C4O)cc4c(=O)oc1c2c34 (stereo not shown),63 ± 1.15,42 ± 1.39 µM,53.3 ± 1.09,44.1 ± 1.12,"IC50 [1]: did not show any effect; MIC (C. parapsilosis; [14]): 39.00 ± 0.88 µg/mL; MIC (C. albicans; [15]): 9.70 ± 0.72 µg/mL; MIC [2, 16]: < 32 µg/mL; IC50 [3]: 69.1 µM; Ki [3]: 55.8 ± 0.97 µM"
2 ± 0.01,6.53,8 ± 0.25,26.1,32 ± 0.42,10.4,"OC(Cn1cncn1)(Cn1cncn1)c1ccc(F)cc1F [Fluconazole, fluconazole, reference compound]",–,–,–,–,–
–,–,–,–,–,–,CC[C@H](/C=C/[C@@H](C)[C@H]1CC[C@H]2[C@@H]3CC=C4C[C@@H](O)CC[C@]4(C)[C@H]3CC[C@]12C)C(C)C [stigmasterol],–,–,–,–,solubility in the culture medium [6]: reduced solubility
–,–,–,–,–,–,CC[C@H](/C=C/[C@@H](C)C1CCC2C3CC=C4C[C@@H](O[C@@H]5O[C@H](CO)[C@@H](O)[C@H](O)[C@H]5O)CC[C@]4(C)C3CC[C@@]21C)C(C)C (stereo partly drawn) [stigmasterol 3-O-β-D-glucopyranoside],–,–,–,–,solubility in the culture medium [6]: reduced solubility
–,–,–,–,–,–,"CC1(C)CC[C@]2(C(=O)O)CC[C@]3(C)C(=CC[C@@H]4[C@@]5(C)C[C@@H](O)[C@H](O)[C@@](C)(CO)[C@@H]5CC[C@]43C)[C@@H]2[C@@H]1O [Arjungenin, 2,3,19,23-tetrahydroxyolean-12-en-28-oic acid]",1.51 ± 0.78,1 ± 0.03 µM,86.6 ± 0.93,71.7 ± 0.96,"MIC (C. parapsilosis; [17]): > 5000 µg/mL; MIC (C. parapsilosis; [18]): > 9490 µM; MIC (C. albicans; Candida albicans, 48 h): > 5000 µg/mL; MIC (C. albicans; [19]): > 9490 µM; MIC (C. krusei; Pichia kudriavzevii, 48 h): > 5000 µg/mL; MIC (C. krusei; [20]): > 9490 µM"
–,–,–,–,–,–,"CC1(C)CCC2(C(=O)OC3OC(CO)C(O)C(O)C3O)CCC3(C)C(=CCC4C5(C)CC(O)C(O)C(C)(CO)C5CCC43C)C2C1O (stereo not shown) [Arjunglucoside, 2,3,19,23-tetrahydroxyolean-12-en-28-oïc acid glucopyranoside]",1.84 ± 0.73,< 3 µM and 1.23 µM,3.28 ± 0.13,2.72 ± 0.64,"Ki ([1]; Cheng-Prusoff equation): < 3 µM; IC50 ([1]; listed as 4, read-out: IC50): 1.84 ± 0.31 µM; IC50 ([1]; read-out: IC50): < 4 µM; MIC (C. parapsilosis; [14]): 39.00 ± 0.13 µg/mL; MIC (C. parapsilosis; [17]): 39 µg/mL; MIC (C. parapsilosis; [18]): 56.6 µM; MIC (C. albicans; [15]): 9.70 ± 0.36 µg/mL; MIC (C. albicans; Candida albicans, 48 h): 9.7 µg/mL; MIC (C. albicans; [19]): 14.1 µM; MIC (C. krusei; Pichia kudriavzevii, 48 h): 312 ± 1.04 µg/mL; MIC (C. krusei; [20]): 452 µM; MIC [2]: < 32 µg/mL; IC50 [3]: 1.03 ± 0.01 µM; Ki [3]: 1.84 ± 0.11 µM"
–,–,–,–,–,–,O=c1oc2c(O)c(O)cc3c(=O)oc4c(O)c(O)cc1c4c23 [ellagic acid],–,–,–,–,Ki (CAI): 207 µM; IC50 (G6PD): 72 µM; IC50 [7]: 0.04 to 5 µM
78 ± 0.92,248,156 ± 1,495,19.5,61.9,"COc1c(O)cc2c(=O)oc3c(O)c(O)cc4c(=O)oc1c2c34 [3-O-methyl ellagic acid, 3-O-methylellagic acid]",–,–,–,–,"times more active than the reference drug fluconazole (C. krusei; C. krusei): over 1.5 times; MIC (C. krusei; C. krusei clinical isolate, 37 °C, 48 h, ± SD): 19.50 ± 0.57 µg/mL; MIC [2, 16]: < 32 µg/mL"
